Source: article PMC6726534 (Biotechnology and bioengineering, 2019)
In brackets after ≈: the same amount, converted by molar mass. Where a SMILES comes first, the peptide text is derived from it.

Tests used:
Assay type in all cases: cell-based
E. coli JW0013 = details: JW0013, 1 h
E. coli J2210 = details: J2210, 1 h
E. coli JJ2489 = details: JJ2489, 1 h
[1] = system: Salmonella enterica serovar Enteritidis MH91989; details: serovar Enteritidis MH91989, 1 h
[2] = system: Salmonella enterica serovar Typhimurium ATCC SL1344; details: ATCC SL1344, 1 h
E. coli FVEC 638 = details: FVEC 638, 1 h
E. coli FVEC 964 = details: FVEC 964, 1 h
E. coli PUTI 379 = details: PUTI 379, 1 h
[3] = system: Salmonella enterica serovar Tennessee; details: 1 h
[4] = system: Salmonella enterica serovar Newport; details: 1 h
[5] = system: Salmonella Infantis #129 B; details: 1 h

Row | Structure (SMILES) | MIC (E. coli JW0013) [µM] | MIC (E. coli J2210) [µM] | MIC (E. coli JJ2489) [µM] | MIC [1] [µM] | MIC [2] [µM] | MIC (E. coli FVEC 638) [µM] | MIC (E. coli FVEC 964) [µM] | MIC (E. coli PUTI 379) [µM] | MIC [3] [µM] | MIC [4] [µM] | MIC [5] [µM]
1 | CC(C)C[C@H](NC(=O)[C@H](CCCNC(=N)N)NC(=O)[C@@H]1CCCN1C(=O)[C@H](Cc1c[nH]cn1)NC(=O)[C@@H]1CCCN1C(=O)[C@@H]1CCCN1C(=O)[C@H](CCCNC(=N)N)NC(=O)[C@@H]1CCCN1C(=O)[C@H](CCC(N)=O)NC(=O)[C@@H]1CCCN1C(=O)[C@H](CCCNC(=N)N)NC(=O)[C@H](Cc1ccc(O)cc1)NC(=O)[C@@H](NC(=O)[C@@H]1CCCN1C(=O)[C@H](CCCCN)NC(=O)[C@H](CC(N)=O)NC(=O)[C@H](CC(N)=O)NC(=O)CN)C(C)C)C(=O)O [Api_R4K/I8R] (H-GNNKPVYRPQPRPPHPRL-OH) | 0.012 ± 0.003 (≈ 0.0255 µg/mL) | 0.034 ± 0.017 (≈ 0.0722 µg/mL) | 0.034 ± 0.017 (≈ 0.0722 µg/mL) | 0.031 ± 0.014 (≈ 0.0658 µg/mL) | 0.034 ± 0.017 (≈ 0.0722 µg/mL) | 0.048 ± 0.011 (≈ 0.102 µg/mL) | 0.048 ± 0.011 (≈ 0.102 µg/mL) | 0.048 ± 0.011 (≈ 0.102 µg/mL) | 0.024 ± 0.006 (≈ 0.051 µg/mL) | 0.017 ± 0.009 (≈ 0.0361 µg/mL) | 0.024 ± 0.006 (≈ 0.051 µg/mL)
2 | CC[C@H](C)[C@H](NC(=O)[C@H](CCCNC(=N)N)NC(=O)[C@@H](N)CCCNC(=N)N)C(=O)N[C@@H](CCCNC(=N)N)C(=O)N[C@@H](CCCCN)C(=O)N[C@@H](CCCNC(=N)N)C(=O)N1CCC[C@H]1C(=O)N1CCC[C@H]1C(=O)N[C@@H](CCCNC(=N)N)C(=O)N[C@@H](CC(C)C)C(=O)N1CCC[C@H]1C(=O)N[C@@H](CCCNC(=N)N)C(=O)N1CCC[C@H]1C(=O)N[C@@H](CCCNC(=N)N)C(=O)N1CCC[C@H]1C(=O)N[C@@H](CCCCN)C(=O)O [Bac_P5K/R16K] (H-RRIRKRPPRLPRPRPK-OH) | 0.060 ± 0.014 (≈ 0.125 µg/mL) | 0.157 ± 0.054 (≈ 0.326 µg/mL) | 0.120 ± 0.028 (≈ 0.25 µg/mL) | 0.120 ± 0.028 (≈ 0.25 µg/mL) | 0.120 ± 0.028 (≈ 0.25 µg/mL) | – | – | – | – | – | –
3 | CC[C@H](C)[C@H](NC(=O)[C@H](CCCNC(=N)N)NC(=O)[C@@H](N)CCCNC(=N)N)C(=O)N[C@@H](CCCCN)C(=O)N[C@@H](CCCCN)C(=O)N[C@@H](CCCNC(=N)N)C(=O)N1CCC[C@H]1C(=O)N1CCC[C@H]1C(=O)N[C@@H](CCCNC(=N)N)C(=O)N[C@@H](CC(C)C)C(=O)N1CCC[C@H]1C(=O)N[C@@H](CCCNC(=N)N)C(=O)N1CCC[C@H]1C(=O)N[C@@H](CCCNC(=N)N)C(=O)N1CCC[C@H]1C(=O)N[C@@H](CCCCN)C(=O)O [Bac_R4K/P5K/R16K] (H-RRIKKRPPRLPRPRPK-OH) | 0.060 ± 0.014 (≈ 0.123 µg/mL) | 0.167 ± 0.061 (≈ 0.343 µg/mL) | 0.120 ± 0.028 (≈ 0.246 µg/mL) | 0.167 ± 0.061 (≈ 0.343 µg/mL) | 0.120 ± 0.028 (≈ 0.246 µg/mL) | – | – | – | – | – | –
4 | CC[C@H](C)[C@H](NC(=O)[C@H](CCCNC(=N)N)NC(=O)[C@@H](N)CCCNC(=N)N)C(=O)N[C@@H](CCCCN)C(=O)N[C@@H](CCCCN)C(=O)N[C@@H](CCCNC(=N)N)C(=O)N1CCC[C@H]1C(=O)N1CCC[C@H]1C(=O)N[C@@H](CCCNC(=N)N)C(=O)N[C@@H](CC(C)C)C(=O)N1CCC[C@H]1C(=O)N[C@@H](CCCNC(=N)N)C(=O)N1CCC[C@H]1C(=O)N[C@@H](CCCNC(=N)N)C(=O)N1CCC[C@H]1C(=O)N[C@@H](CCCNC(=N)N)C(=O)O [Bac_R4K/P5K] (H-RRIKKRPPRLPRPRPR-OH) | 0.060 ± 0.014 (≈ 0.125 µg/mL) | 0.157 ± 0.054 (≈ 0.326 µg/mL) | 0.120 ± 0.028 (≈ 0.25 µg/mL) | 0.120 ± 0.028 (≈ 0.25 µg/mL) | 0.120 ± 0.028 (≈ 0.25 µg/mL) | – | – | – | – | – | –
5 | CC[C@H](C)[C@H](NC(=O)[C@H](CCCNC(=N)N)NC(=O)[C@@H](N)CCCNC(=N)N)C(=O)N[C@@H](CCCCN)C(=O)N1CCC[C@H]1C(=O)N[C@@H](CCCNC(=N)N)C(=O)N1CCC[C@H]1C(=O)N1CCC[C@H]1C(=O)N[C@@H](CCCNC(=N)N)C(=O)N[C@@H](CC(C)C)C(=O)N1CCC[C@H]1C(=O)N[C@@H](CCCNC(=N)N)C(=O)N1CCC[C@H]1C(=O)N[C@@H](CCCNC(=N)N)C(=O)N1CCC[C@H]1C(=O)N[C@@H](CCCCN)C(=O)O [Bac_R4K/R16K] (H-RRIKPRPPRLPRPRPK-OH) | 0.060 ± 0.014 (≈ 0.121 µg/mL) | 0.120 ± 0.028 (≈ 0.242 µg/mL) | 0.120 ± 0.028 (≈ 0.242 µg/mL) | 0.157 ± 0.054 (≈ 0.317 µg/mL) | 0.120 ± 0.028 (≈ 0.242 µg/mL) | – | – | – | – | – | –
6 | CC[C@H](C)[C@H](NC(=O)[C@H](CCCNC(=N)N)NC(=O)[C@@H](N)CCCNC(=N)N)C(=O)N[C@@H](CCCNC(=N)N)C(=O)N1CCC[C@H]1C(=O)N[C@@H](CCCNC(=N)N)C(=O)N1CCC[C@H]1C(=O)N1CCC[C@H]1C(=O)N[C@@H](CCCNC(=N)N)C(=O)N[C@@H](CC(C)C)C(=O)N1CCC[C@H]1C(=O)N[C@@H](CCCNC(=N)N)C(=O)N1CCC[C@H]1C(=O)N[C@@H](CCCNC(=N)N)C(=O)N1CCC[C@H]1C(=O)N[C@@H](CCCNC(=N)N)C(=O)O [Bac_WT, reference compound] (H-RRIRPRPPRLPRPRPR-OH) | – | 0.120 ± 0.028 (≈ 0.249 µg/mL) | 0.120 ± 0.028 (≈ 0.249 µg/mL) | 0.120 ± 0.028 (≈ 0.249 µg/mL) | 0.060 ± 0.014 (≈ 0.125 µg/mL) | – | – | – | – | – | –
